Measured values from patent publication US20030228324A1, “Peptide compositions and methods of producing and using same” (priority 1999, published 2003).
Entries after “also recorded” stand apart in the source; their conditions may differ.

Tests used:
P1 wild-type = experiment: Active immunization with peptide, mice, P1 wild-type challenge; type: in vivo, Pseudomonas aeruginosa; details: immunized animals (FIGS. 4, 5)
Procedure: (§1) A.BY/SnJ mice were actively immunized at week 0 with 40-50 μg of peptide-tetanus toxoid conjugate mixed with 100 μg of Adjuvax as adjuvant in 50 μl of 10 mM PBS at pH 7.2. Control mice were given 50 μ of 10 mM PBS at pH 7.2 containing 100 μg of Adjuvax. […] Each test group and the control group consisted of ten animals. The effectiveness of the vaccine was determined by the survival rate of the test animals up to 48 hours.

AcP1(126-148)OH = experiment: Competition ELISA, antiserum affinity for P1 peptide; type: binding, Pseudomonas aeruginosa; details: for cross-reactivity of the antiserum with P1: antiserum raised to the named peptide
AcKB7(128-144)OH = experiment: Competition ELISA, antiserum affinity for KB7 peptide; type: binding, Pseudomonas aeruginosa; details: for cross-reactivity of the antiserum with KB7: antiserum raised to the named peptide
AcPAO(128-144)OH [1] = molecular target: AcPAO(128-144)OH (Pseudomonas aeruginosa, UniProt P04739); type: binding; details: for cross-reactivity of the antiserum with PAO: antiserum raised to the named peptide
AcPAO(128-144)OH [2] = type: binding, Pseudomonas aeruginosa; details: cross-reactivity of an antiserum: affinity for native PAK over native PAO peptide, 1 = same affinity
AcPAK(128-144)OH = AcPAK(128-144)OH (Pseudomonas aeruginosa, UniProt P02973); type: binding
[3] = tested on: peptide antigen used to raise the antiserum; experiment: Competition ELISA, antiserum affinity for its own peptide antigen; design: species or system Pseudomonas aeruginosa; details: peptide giving 50% inhibition of antibody binding to PAK pilin; read-out: Antigen I50
KB7 wild-type = experiment: Active immunization with peptide, mice, KB7 wild-type challenge; type: in vivo, Pseudomonas aeruginosa; details: immunized animals (FIG. 6)
Procedure: as §1

[4] = tested on: Pseudomonas aeruginosa agarose beads; experiment: Active intratracheal model, CF mice; type: in vivo; details: 10 days post i.t. challenge
[5] = tested on: Pseudomonas aeruginosa strain PAO; details: in vivo
PAK wild-type = experiment: Active immunization with peptide, mice, PAK wild-type challenge; type: in vivo, Pseudomonas aeruginosa; details: immunized animals (FIG. 7)
Procedure: as §1

[6] = fold increase (+) or decrease (−) in affinity compared to antiserum 17-01

Sequence: KCKSTQDEMFTPKGCSK [CS4]
- protection after P1 wild-type challenge (P1 wild-type): good protection

Sequence: KCTSDQDPQFIPKGCSK [E135P]
- cross-reactivity of the antiserum with P1 (AcP1(126-148)OH): not cross-reactive
- IC50 (AcP1(126-148)OH; competition ELISA on PAK pili, read-out: I50 for P1): 176 µM
- PI A (AcP1(126-148)OH; [6]): +6.9
- cross-reactivity of the antiserum with KB7 (AcKB7(128-144)OH): not able to effectively bind; also recorded: not cross-reactive
- KB7 A (AcKB7(128-144)OH; [6]): −1.2
- IC50 (AcKB7(128-144)OH; peptide giving 50% inhibition of antibody binding to PAK pilin, read-out: KB7 I50): 835 µM
- cross-reactivity of the antiserum with PAO (AcPAO(128-144)OH [1]): not able to effectively bind; also recorded: less cross-reactive than native PAK antiserum; also recorded: less cross-reactive to PAO than PAK peptide
- IC50 (AcPAO(128-144)OH [1]; competition ELISA on PAK pili, read-out: I50 for PAO): 4750 µM
- PAO A (AcPAO(128-144)OH [1]; [6]): −19.7
- KPAK/KPAO (AcPAO(128-144)OH [2]): 11,600
- IC50 (AcPAK(128-144)OH; competition ELISA on PAK pili, read-out: I50 for PAK): 0.41 µM
- PAK A (AcPAK(128-144)OH; [6]): −2.2
- IC50 [3]: 0.7 µM

Sequence: KCKSDQDPQFIPKGCSK [CS1]
- cross-reactivity of the antiserum with P1 (AcP1(126-148)OH): moderate cross-reactivities
- cross-reactivity of the antiserum with KB7 (AcKB7(128-144)OH): moderate cross-reactivities
- cross-reactivity of the antiserum with PAO (AcPAO(128-144)OH [1]): very high cross-reactivities
- cross-reactivity of the antiserum with PAK (AcPAK(128-144)OH; antiserum raised to the named peptide): very high cross-reactivities
- protection after KB7 wild-type challenge (KB7 wild-type): effective in protecting; also recorded: good protection
- protection after P1 wild-type challenge (P1 wild-type): effective in protecting; also recorded: high level of protection
- Colony Forming Units in BAL Fluid ([4]; immunized i.n. & i.p.): 47 CFU (× 10^3)/mL
- White Blood Cell Counts in BAL Fluid, Total Cells ([4]; immunized i.n. & i.p.): 4 (× 10^4)/mL
- Colony Forming Units in BAL Fluid ([4]; immunized i.n.): 0 CFU (× 10^3)/mL
- White Blood Cell Counts in BAL Fluid, Total Cells ([4]; immunized i.n.): 1 (× 10^4)/mL
- Colony Forming Units in BAL Fluid ([4]; immunized i.p.): 5 CFU (× 10^3)/mL
- White Blood Cell Counts in BAL Fluid, Total Cells ([4]; immunized i.p.): 28 (× 10^4)/mL

Sequence: KCTSTQDPQFIPKGCSK [CS2]
- protection / survival time after PAO wild-type challenge [5]: complete protection
- cross-reactivity of the antiserum with PAO (AcPAO(128-144)OH [1]): enhanced cross-reactivity to PAO
- protection after PAK wild-type challenge (PAK wild-type): very high level of protection
- protection after P1 wild-type challenge (P1 wild-type): high level of protection

Sequence: KCTSDQDEQFIPKGCSK [PAK, reference compound]
- protection / survival time after PAO wild-type challenge [5]: does not provide protection against PAO challenge
- cross-reactivity of the antiserum with PAO (AcPAO(128-144)OH [1]): cross-reactive with the native PAO sequence

Sequence: KCTSTQDPQFTPKGCSK [CS3]
- protection after P1 wild-type challenge (P1 wild-type): high level of protection
